In patent US9937235B2, “Lipidated peptides as anti-obesity agents” (USTAV ORGANICKE CHEMIE A BIOCHEMIE AKADEMIE VED CR, V.V.I, priority 2012, dated 2018):
Where a SMILES comes first, the peptide text is derived from it. [ ]: non-standard residue; d: D form. The star is where a group is joined. Palmitoyl = CCCCCCCCCCCCCCCC(=O)*; Myristoyl = CCCCCCCCCCCCCC(=O)*; Nle = CCCC[C@H](N)C(=O)O; Dap = NC[C@H](N)C(=O)O

Experiments:
[1] = test system: MAPK/ERK1/2 signaling pathway in RC-4B/C cells; assay: MAPK/ERK1/2 signaling in RC-4B/C cells (Western blot); assay type: cell-based, rat; details: 10^−6 mol·l^−1, 5 minute incubation
[2] = target: T1, rat PrRP receptor (GPR10) in RC-4B/C cells (Rattus norvegicus, UniProt Q64121); assay: Competitive binding to rat pituitary RC-4B/C cells; details: ^125I-rat PrRP31, RC-4B/C cells; also: test concentration or dose not given here
T1 construct: host or cells: RC-4B/C rat pituitary cell line
T1 sequence (Q64121 1-370): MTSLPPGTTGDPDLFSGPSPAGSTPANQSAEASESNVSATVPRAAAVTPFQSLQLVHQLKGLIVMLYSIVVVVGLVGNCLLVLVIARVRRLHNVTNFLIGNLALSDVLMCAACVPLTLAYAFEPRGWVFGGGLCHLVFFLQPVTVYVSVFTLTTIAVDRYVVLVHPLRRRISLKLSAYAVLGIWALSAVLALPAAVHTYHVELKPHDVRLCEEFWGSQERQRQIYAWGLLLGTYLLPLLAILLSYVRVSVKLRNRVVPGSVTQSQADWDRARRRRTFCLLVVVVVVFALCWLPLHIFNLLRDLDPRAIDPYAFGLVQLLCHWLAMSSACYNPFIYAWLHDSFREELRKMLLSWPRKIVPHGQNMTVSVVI

SMILES	ERK signaling [1]	% of PrRP31 binding [2] [%]
CCCCCCCCCCCCCC(=O)NC[C@H](N)C(=O)N[C@@H](CCCNC(=N)N)C(=O)N[C@@H](C)C(=O)N[C@@H](Cc1c[nH]cn1)C(=O)N[C@@H](CCC(N)=O)C(=O)N[C@@H](Cc1c[nH]cn1)C(=O)N[C@@H](CO)C(=O)N[C@@H](CCCC)C(=O)N[C@@H](CCC(=O)O)C(=O)N[C@H](C(=O)N[C@@H](CCCNC(=N)N)C(=O)N[C@H](C(=O)N1CCC[C@H]1C(=O)N[C@@H](CC(=O)O)C(=O)N[C@H](C(=O)N[C@@H](CC(N)=O)C(=O)N1CCC[C@H]1C(=O)N[C@@H](C)C(=O)N[C@@H](Cc1c[nH]c2ccccc12)C(=O)N[C@@H](Cc1ccc(O)cc1)C(=O)N[C@H](C(=O)NCC(=O)N[C@@H](CCCNC(=N)N)C(=O)NCC(=O)N[C@H](C(=O)N[C@@H](CCCNC(=N)N)C(=O)N1CCC[C@H]1C(=O)N[C@H](C(=O)NCC(=O)N[C@@H](CCCNC(=N)N)C(=O)N[C@@H](Cc1ccccc1)C(N)=O)C(C)C)[C@@H](C)CC)[C@@H](C)O)[C@@H](C)CC)[C@@H](C)O)[C@@H](C)O [Analog 5] (H-[Dap](Myristoyl)RAHQHS[Nle]ETRTPDINPAWYTGRGIRPVGRF-NH2)	agonist	601
CCCCCCCCCCCCCCCC(=O)NC[C@H](N)C(=O)N[C@@H](CCCNC(=N)N)C(=O)N[C@@H](C)C(=O)N[C@@H](Cc1c[nH]cn1)C(=O)N[C@@H](CCC(N)=O)C(=O)N[C@@H](Cc1c[nH]cn1)C(=O)N[C@@H](CO)C(=O)N[C@@H](CCCC)C(=O)N[C@@H](CCC(=O)O)C(=O)N[C@H](C(=O)N[C@@H](CCCNC(=N)N)C(=O)N[C@H](C(=O)N1CCC[C@H]1C(=O)N[C@@H](CC(=O)O)C(=O)N[C@H](C(=O)N[C@@H](CC(N)=O)C(=O)N1CCC[C@H]1C(=O)N[C@@H](C)C(=O)N[C@@H](Cc1c[nH]c2ccccc12)C(=O)N[C@@H](Cc1ccc(O)cc1)C(=O)N[C@H](C(=O)NCC(=O)N[C@@H](CCCNC(=N)N)C(=O)NCC(=O)N[C@H](C(=O)N[C@@H](CCCNC(=N)N)C(=O)N1CCC[C@H]1C(=O)N[C@H](C(=O)NCC(=O)N[C@@H](CCCNC(=N)N)C(=O)N[C@@H](Cc1ccccc1)C(N)=O)C(C)C)[C@@H](C)CC)[C@@H](C)O)[C@@H](C)CC)[C@@H](C)O)[C@@H](C)O [Analog 6] (H-[Dap](Palmitoyl)RAHQHS[Nle]ETRTPDINPAWYTGRGIRPVGRF-NH2)	agonist	1072
